Each structure is given as a SMILES string.

The values below come from the PolyMetriX glass transition set.

With `*/C(Cl)=C(/*)CCCCCCCC` (repeat unit), the glass transition temperature was found to be 90.00 °C.

`*CC(=O)NCC(=O)O*` (repeat unit): the glass transition temperature was 67.00 °C.

As to `*CC(=O)NCCCCCCNC(=O)COC(=O)CCCCCCCCC(=O)O*` (repeat unit), the glass transition temperature was found to be 2.00 °C.

The compound `*CC(C)(C)COC(=O)CCC(=O)O*` (repeat unit) yielded a glass transition temperature of -18.00 °C.

Regarding `*CC(C)(C)COC(=O)c1ccc(-c2ccc(C(=O)O*)cc2)cc1` (repeat unit), the glass transition temperature amounted to 101.00 °C.

On to `*CC(C)(C)COC(=O)c1ccc(/C=C/c2ccc(C(=O)O*)cc2)cc1` (repeat unit), for which the glass transition temperature is 80.00 °C.

`*CC(C)(C)CS(=O)(=O)CC(C)(C)COC(=O)NCCCCCCNC(=O)O*` (repeat unit) returned a glass transition temperature of 30.00 °C.

As to `*CC(C)(CC)COC(=O)CCCCCCCCC(=O)O*` (repeat unit), the glass transition temperature is -69.00 °C.

For the compound `*CC(C)(CCC)C(=O)O*` (repeat unit), the glass transition temperature came to 1.90 °C.

For the compound `*CC(C)C(=O)O*` (repeat unit), the glass transition temperature was -25.00 °C.

For the compound `*CC(CCCCCCCC)COC(=O)NC(=O)c1cccc(C(=O)NC(=O)O*)c1` (repeat unit), the glass transition temperature stood at 65.00 °C.

As for `*CC(CCCCCCCCCCCC)COC(=O)NC(=O)c1cccc(C(=O)NC(=O)O*)c1` (repeat unit), the glass transition temperature came out at 112.00 °C.

`*CC(CCCCCCOc1ccc(/N=N/c2ccc(C#N)cc2)cc1)COC(=O)CCCCCCCCCCCCC(=O)O*` (repeat unit) displayed a glass transition temperature of 21.50 °C.

In turn, `*CC(OC(=O)C(=O)OCC)C(COC(=O)O*)OC(=O)C(=O)OCC` (repeat unit) came in with a glass transition temperature of 53.80 °C.

`*CC(OC=O)C(COC(=O)O*)OC=O` (repeat unit): the glass transition temperature was 54.30 °C.

Compound `*CCC(C)(C)CC(C)CNC(=O)c1ccc(C(=O)N*)cc1` (repeat unit) gave a glass transition temperature of 148.00 °C.

Compound `*CCC(C)(C)CC(C)COC(=O)CCCCC(=O)O*` (repeat unit) gave a glass transition temperature of -70.00 °C.

`*CCCCCCCC(=O)OCC1(C)COC(*)OC1` (repeat unit) had a glass transition temperature of -26.00 °C.

For `*Cc1cc(COC(=O)Nc2ccc(Cc3ccc(NC(=O)O*)cc3)cc2)cc(C(C)(C)C)c1` (repeat unit), the glass transition temperature is 114.00 °C.

The compound `*Nc1cccc(NC(=O)c2cc(NC(=O)c3ccccc3)cc(C(*)=O)c2)c1` (repeat unit) gave a glass transition temperature of 300.00 °C.

In turn, `*OC(COC(*)=O)COC(C)(C)C` (repeat unit) displayed a glass transition temperature of 18.00 °C.

In the case of `*OC(COC(=O)c1c(F)c(F)c(-c2c(F)c(F)c(C(*)=O)c(F)c2F)c(F)c1F)COc1ccc(/N=N/c2ccc(C#N)cc2)cc1` (repeat unit), the glass transition temperature turned out to be 112.00 °C.

In turn, `*Oc1ccc(S(=O)(=O)c2ccc(Oc3ccc(NC(=O)c4cc(NC(=O)c5ccc(OC(C)=O)cc5)cc(C(=O)Nc5ccc(*)cc5)c4)cc3)cc2)cc1` (repeat unit) yielded a glass transition temperature of 263.00 °C.

The compound `*Oc1ccc(S(=O)(=O)c2ccc(Oc3ccc(NC(=O)c4cc(NC(=O)c5ccncc5)cc(C(=O)Nc5ccc(*)cc5)c4)cc3)cc2)cc1` (repeat unit) came in with a glass transition temperature of 283.00 °C.

On to `*Oc1cccc(Oc2ccc(NC(=O)c3cc(NC(=O)c4ccc(OC(C)=O)cc4)cc(C(=O)Nc4ccc(*)cc4)c3)cc2)c1` (repeat unit), for which the glass transition temperature was found to be 230.00 °C.

On to `*Oc1cccc2ccc(Oc3ccc(NC(=O)c4cc(C(=O)Nc5ccc(*)cc5)cc(C(C)(C)C)c4)cc3)cc12` (repeat unit), for which the glass transition temperature came out at 263.00 °C.

For `*c1ccc(NC(=O)c2cc(NC(=O)c3ccc(NC(=O)C(C)N4C(=O)c5ccccc5C4=O)cc3)cc(C(=O)Nc3ccc(S(*)(=O)=O)cc3)c2)cc1` (repeat unit), the glass transition temperature was found to be 208.00 °C.
